Data from US20090186854A1, “S-ALKYLISOTHIOURONIUM DERIVATIVES FOR THE TREATMENT OF INFLAMMATORY DISEASES” (Meditor Pharmaceuticals Ltd., priority 2006, published 2009).

Assays:
healthy male subjects = assay: Phase I clinical trial, safety of escalating doses; format: in vivo, human; settings: 12 healthy male subjects
Protocol: Based on animal toxicological studies and on the accumulated data on human patients, S-ethylisothiouronium diethylphosphate was approved for a Phase I clinical trial. In this study, the pharmacokinetic profile as well as safety of escalating doses (0.6-2.4 mg/kg) of S-ethylisothiouronium diethylphosphate were assessed in 12 healthy male subjects.

rats = assay: Animal toxicological studies (single or repeated dose, LD50)

In the case of S-ethylisothiouronium diethylphosphate, the Adverse events (healthy male subjects; doses up to 1.2 mg/kg) is reported as “no recorded adverse events”, the Well tolerated dose (healthy male subjects; escalating doses 0.6-2.4 mg/kg) is reported as “up to 1.2 mg/kg” and the LD50 (rats; in rats) is reported as “up to 400 mg/kg”. For the same substance, the “LD50 relative to therapeutically recommended dose” value (rats; rats LD50 vs therapeutically recommended dose of 0.6-1.2 mg/kg) was 300-400 fold.
